Experimental data published in patent publication US20030181380A1, “Modulating lymphoid commitment and survival” (priority 2002, published 2003).
Residues, ends and D or L forms follow the SMILES beside them. *: point of attachment. Cbz = O=C(OCc1ccccc1)*; CH2F = FC*

Legend:
[1] = molecular target: Notch receptors on human B-ALL cell line JM-1; assay: cell-based or functional assay
V9 cells = assay: AnnexinV staining of ICN1-transduced V9 cells cultured with caspase inhibitor; type: cell-based, murine
Method: Apoptosis is frequently mediated by caspases, a family of cysteine proteases, whose activation leads to cell death. To further characterize the ICN1-induced cell death, ICN1-transduced V9 cells were cultured with either the general caspase inhibitor, zVAD (50 μM in DMSO), or DMSO alone (zVAD vehicle only), and analyzed 22 and 44 hours later (FIG. 3B). When cultured in control media (no zVAD), the great majority of GFP+ cells became AnnexinV positive by 22 hours post transduction, and few GFP positive cells remained at 44 hours (FIG. 3B, middle panel).
This may due to the incomplete inhibition of zVAD on the targeted caspases or, alternatively, caspase-independent pathways also contribute the B cell death.

JM-1 cells = assay: Tamoxifen-inducible ICN1 (ICN1-ER-BD) in JM-1 subclones: PI, AnnexinV, RT-PCR; type: cell-based, human; conditions: JM-1 subclones with tamoxifen-inducible ICN1
Source text: To further characterize this effect, a retroviral vector containing a tamoxifen-inducible-ICN1 vector co-expressing GFP (ICN1+GFP) was stably transduced into three of the JM-1 human B-ALL leukemia/lymphoma′cell lines. To accomplish this, the estrogen receptor hormone-binding domain (ER-BD) was fused via a linker to ICN1. This fusion product was expressed on the MigR1 (MSCV-based) retroviral vector, which co-expresses GFP. JM-1 cells were transduced with this construct and subclones were selected for high expression. The GFP positive populations were sub cloned and individual clones expressing various levels of ICN1+GFP were analyzed after exposure to tamoxifen (FIG. 18A). Subclone JM-1.2 was exposed to tamoxifen and RT-PCR was performed (FIG. 18B). Growth arrest was shown by PI staining, apoptosis was measured by AnnexinV staining, and increased levels of Hairy expression were measured by RT-PCR. The percentage of non-GO/G1 cells was normalized to pre-treatment levels by duplicate experiments. The results of three experiments averaged ± standard deviation compared with EtOH control, and the average of duplicate experiments was relative to GAPDH expression and normalized to day 0 (pre-treatment) levels.
This effect was similar to the results seen with non-induced constructs.

human Jagged2 (from UniProt Q9Y219 24-1238) (ligand)
Hairy expression in B-ALL cells by RT-PCR at 24 hours of co-culture [1]: 5 fold

human Jagged1 (from UniProt P78504 34-1218) (ligand)
Hairy expression in B-ALL cells by RT-PCR at 24 hours of co-culture [1]: 5 fold

CC(NC(=O)C(NC(=O)OCc1ccccc1)C(C)C)C(=O)NC(CC(=O)O)C(=O)CF (stereo not drawn) [zVAD] (Cbz-Val-Ala-Asp-CH2F; configuration not given here)
ICN1-transduced cells becoming AnnexinV positive (V9 cells; 50 μM zVAD, 22 hours): only a few
protection of V9 cells from apoptosis (V9 cells; zVAD, up to 44 hours post-transduction): only partially protected

CC/C(=C(\c1ccccc1)c1ccc(OCCN(C)C)cc1)c1ccccc1 [tamoxifen]
cell cycle and apoptosis after induction (JM-1 cells): cell cycle (growth) arrest and apoptosis
